The values that follow come from article PMC11229689, “In Vitro Selection of Macrocyclic L-α/D-α/β/γ-Hybrid Peptides Targeting IFN-γ/IFNGR1 Protein–Protein Interaction” (Journal of the American Chemical Society, 2024).

Read-outs that look alike come from different tables or passages of the source. *1 amine or outer side, *2 acyl side, *3 side chain or, on linkers, in order; H or OH if unused. Where a SMILES comes first, the peptide text is derived from it. Bridges are numbered along the chain shown (N, C = ends). [ ]: non-standard residue; d: D form. Acbc(trans-1,3) = O=C([C@H]1C[C@H](N[*:1])C1)[*:2]; Acbc(cis-1,3) = O=C([C@H]1C[C@@H](N[*:1])C1)[*:2]; X1 = O=C([C@@H]1CCC[C@@H]1N[*:1])[*:2]; Orn = NCCC[C@H](N)C(=O)O

One data set concerns the target T1, Fc-tagged human IFNGR1 (Homo sapiens, UniProt P15260).
T1 construct: purchased ACROBiosystems
T1 sequence (P15260 18-489): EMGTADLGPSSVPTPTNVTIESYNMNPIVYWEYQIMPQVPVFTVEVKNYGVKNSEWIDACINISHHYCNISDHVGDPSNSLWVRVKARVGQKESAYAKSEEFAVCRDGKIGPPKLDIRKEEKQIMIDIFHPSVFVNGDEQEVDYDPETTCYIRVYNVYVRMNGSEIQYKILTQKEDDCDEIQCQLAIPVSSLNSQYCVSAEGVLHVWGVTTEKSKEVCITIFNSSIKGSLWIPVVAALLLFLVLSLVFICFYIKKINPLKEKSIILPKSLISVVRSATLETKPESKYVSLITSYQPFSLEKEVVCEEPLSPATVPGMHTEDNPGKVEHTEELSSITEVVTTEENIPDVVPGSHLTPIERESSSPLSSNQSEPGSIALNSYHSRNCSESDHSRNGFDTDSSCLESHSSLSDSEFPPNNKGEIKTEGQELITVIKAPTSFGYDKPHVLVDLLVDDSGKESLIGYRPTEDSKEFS
In words: Binding kinetics and affinity to IFNGR1 by surface plasmon resonance (SPR). The conditions noted are these: SPR, 25 °C, 1:1 binding model; for Kd: read-out: KD; for kon: single-cycle kinetics, read-out: ka. Put shortly: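 Fc-tagged IFNGR1 captured on a protein G chip (1,200–1,600 RU), 25 °C, running buffer 10 mM Tris-HCl pH 8.0, 150 mM NaCl, 0.05% Tween 20, 0.1% DMSO. Single-cycle kinetics with five twofold-diluted peptide concentrations at 30 μL/min. Sensorgrams fitted to a 1:1 binding model for kinetic constants and affinity.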
(In SPR one partner is held on a chip, and binding of the other changes the refractive index at the surface.)

The target of data set [1] is T2, IFN-γ/IFNGR1 protein–protein interaction (Homo sapiens, UniProt P15260).
T2 construct: purchased ACROBiosystems
T2 sequence (P15260 18-245 limits assumed): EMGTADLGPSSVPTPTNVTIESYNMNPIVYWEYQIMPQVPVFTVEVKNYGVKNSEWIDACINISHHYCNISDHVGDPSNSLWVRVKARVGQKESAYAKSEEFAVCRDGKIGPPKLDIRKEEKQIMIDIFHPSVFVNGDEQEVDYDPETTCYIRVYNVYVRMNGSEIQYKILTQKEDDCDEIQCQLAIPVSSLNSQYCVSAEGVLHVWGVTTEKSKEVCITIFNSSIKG
Nature of the data set: IFNGR1 inhibition assay using AlphaLISA. The conditions noted are these: four-parameter dose–response fit, n = 3. The class given is biochemical. Here is the method: IFNGR1 inhibition assay using AlphaLISA
The inhibitory activity of peptides against IFN-γ/IFNGR1 protein–protein interaction (PPI) was determined by AlphaLISA.5 Peptides, proteins, and beads were diluted in AlphaLISA immunoassay buffer (PerkinElmer, AL000C). 3.6 μL of 5 nM Fc-tagged IFNGR1 and 3.6 μL of synthetic peptides were mixed in AlphaPlate-384 Shallow Well (PerkinElmer) and preincubated at 25 °C for 10 min. 3.6 μL of 15 nM biotin-tagged IFN-γ was then added to the mix and incubated at 25 °C for 20 min. 3.6 μL each human IgG acceptor beads (PerkinElmer) and streptavidin donor beads (PerkinElmer) were added to the above mix and incubated at 25 °C for 30 min in dark place. Emission at 615 nm was measured […]
by EnSpire Multimode Plate Reader (PerkinElmer). The fraction of bound IFN-γ/IFNGR1 was calculated by the intensity of emission in the presence of peptide divided by that in the absence of […]
peptide. […]
Puromycin. Normocin, Blasticidin, Zeocin, and Puromycin were excluded when conducting the experiments. To evaluate the cellular activity of peptides, peptide mixtures were added to 50,000 cells/well in a flat-bottom 96-well plate and pre-incubated for 30 min at 37 °C before stimulation.
Subsequently, 1 ng/mL of recombinant IFN-γ (InvivoGen) was added to each well in a final reaction volume of 200 μL, followed by incubation for 20 h at 37 °C. 20 μL of supernatants from the induced cells was added to 180 μL Q U A N T I-Blue TM solution (InvivoGen). After further incubation for 3 h at 37 °C, the expression levels of the secreted embryonic alkaline phosphatase (SEAP) were determined by reading the O.D. at 650 nm on a Tecan M1000 PRO microplate reader (Tecan Group) and normalized to the non-treated well. IC50 value was analyzed by a normalized dose-response curve fitting by using GraphPad Prism 9.
HEK-DualTM IFN-γ cells were used for the cell viability assay. 10,000 cells/well were added to each well in a flat-bottom 96-well plate. After 24 h, peptide mixtures were added to each well in a final volume of 100 μL. After further incubation for 24 h, 10 μL CCK-8 reagent (Dojindo) was added to […]
(Bead proximity is the source of the signal in Alpha formats.)

Data set [2] is described as follows: Serum stability assay (LC/MS). It is filed as in vitro ADME, human. As to conditions: for half-life: human. Here is the method:
Binding affinities of IA1 and IA2 against IFNGR1 were evaluated by surface plasmon resonance (SPR) (Table 1 and SI Figure S6A). […] To investigate the contribution of the N-terminal [yVPβ^1RR] motif and β^1 residue in IA1, three scrambled peptides IA1s1–3 and a variant IA1β^14A were synthesized and evaluated. […] We next evaluated inhibitory activities of IA1 and IA2 against the ligand–receptor PPI between IFN-γ and IFNGR1 using AlphaLISA (Table 1 and SI Figure S7).[37] […] We also determined the serum half-lives of IA1 and IA2, considering peptidase resistance as an important factor for therapeutic peptides.[24] A sample peptide and a peptidase-resistant internal standard peptide were coincubated in human serum at 37 °C, and the relative amount of the remaining sample peptide was estimated by LC/MS. […]
10–200 μM synthetic peptide and 5 μM serum-resistant internal standard peptide consisting only of D-amino acids (NH2-PEG5-wstndwstnd-PEG5-CONH2)3 were mixed and incubated in human serum (Cosmo Bio, 12181201) at 37 °C for up to 120 h. At each time point, 4 μL of the mixture was removed and quenched by adding 12 μl methanol. Following centrifugation (15,000 g, 4 °C, 5 min), 10 μL of the supernatant was mixed with 40 μl of 1% (v/v) TFA. Following centrifugation (15,000 g, 4 °C, 5 min), the supernatant was collected for LC/MS analysis, which used a reverse-phase column (ACQUITY UPLC BEH C18, 1.7 μm, 2.1 × 150 mm; Waters) and a Xevo G2-XS QTof system (Waters) with a linear gradient from 1% B to 61% B. Buffer A was water with 0.1% (v/v) formic acid; buffer B was acetonitrile with 0.1% (v/v) formic acid. The percentages of remaining peptides were determined by the peak area integration of the chromatograms. For tandem mass spectrometry, MS/MS spectra were acquired with a 0.2 s scan time, with 10−30 eV collision energy. The obtained LC/MS data was analyzed using MassLynx 4.1 (Waters). […]

Where [3] appears, read: human serum, 37 °C, LC/MS, relative to internal standard peptide, n = 3.
The mark [4] stands for this setting: human serum, 37 °C, LC/MS, relative to internal standard peptide, n = 3, read-out: half-life in human serum (t1/2) (converted).
Where [5] appears, read: serum, half-life in human serum (t1/2).

With `CC(C)[C@@H]1NC(=O)[C@@H](Cc2ccc(O)cc2)NC(=O)CSC[C@H](C(N)=O)NC(=O)[C@H](CC(N)=O)NC(=O)[C@H]2C[C@H](C2)NC(=O)[C@H](CCCNC(=N)N)NC(=O)[C@@H]2CCCN2C(=O)[C@H]([C@@H](C)O)NC(=O)[C@H](CCCNC(=N)N)NC(=O)[C@H](CCCNC(=N)N)NC(=O)[C@H](CO)NC(=O)[C@H](CCCNC(=N)N)NC(=O)[C@H](CCCNC(=N)N)NC(=O)[C@@H]2CCC[C@@H]2NC(=O)[C@@H]2CCCN2C1=O` [IB4γ^213γ^1, ^AcyVPβ^1RRSRRTPRγ^1Nc-NH2] ({CH2CO}-[dY]VP[X1]RRSRRTPR[Acbc(cis-1,3)]N[dC]-NH2; thioether N-15), at Fc-tagged human IFNGR1, the equilibrium dissociation constant (Kd) (usually a measure of binding affinity in units of concentration) is 6.1 ± 2.2 nM and the kon was 210000 ± 70000 M⁻¹ s⁻¹. Also, in data set [1], the IC50 (usually the point on the concentration scale where inhibition reaches its midpoint) is 10 ± 1 nM. The “half-life in human serum (t1/2)” value in data set [2] (setting [3]) is 42.6 ± 2.4 min. In addition, the half-life in data set [2] (setting [4]) was 22.2 min.

Consider `CC(C)[C@@H]1NC(=O)[C@@H](Cc2ccc(O)cc2)NC(=O)CSC[C@H](C(N)=O)NC(=O)[C@H](CC(N)=O)NC(=O)[C@H](CO)NC(=O)[C@H](CCCNC(=N)N)NC(=O)[C@H](CO)NC(=O)[C@H]2C[C@@H](C2)NC(=O)[C@H](CC(N)=O)NC(=O)[C@H]([C@@H](C)O)NC(=O)[C@H](Cc2c[nH]cn2)NC(=O)[C@H](CCCNC(=N)N)NC(=O)[C@H](CCCNC(=N)N)NC(=O)[C@@H]2CCC[C@@H]2NC(=O)[C@@H]2CCCN2C1=O` [IA2, ^AcyVPβ^1RRHTNγ^2SRSNc-NH2] ({CH2CO}-[dY]VP[X1]RRHTN[Acbc(trans-1,3)]SRSN[dC]-NH2; thioether N-15), for which, on Fc-tagged human IFNGR1, the Kd came to 150 ± 40 nM and the kon stood at 120000 ± 50000 M⁻¹ s⁻¹. Also, it took 330 ± 20 nM to reach half-maximal inhibition in data set [1] (IC50). Further, the half-life in data set [2] (setting [4]) is over 156 min.

For `CC(C)[C@@H]1NC(=O)[C@@H](Cc2ccc(O)cc2)NC(=O)CSC[C@H](C(N)=O)NC(=O)[C@H](C)NC(=O)[C@H](CO)NC(=O)[C@H](CCCN)NC(=O)[C@H](CCCN)NC(=O)CNC(=O)[C@H]2C[C@H](C2)NC(=O)[C@H](Cc2c[nH]cn2)NC(=O)[C@H](CC(N)=O)NC(=O)[C@H](CCCNC(=N)N)NC(=O)[C@H](CCCNC(=N)N)NC(=O)[C@@H]2CCC[C@@H]2NC(=O)[C@H](C)NC1=O` [IB3Orn, ^AcyVAβ^1RRNHγ^1GOOSAc-NH2] ({CH2CO}-[dY]VA[X1]RRNH[Acbc(cis-1,3)]G[Orn][Orn]SA[dC]-NH2; thioether N-15), on Fc-tagged human IFNGR1, the Kd was determined as 34 ± 5 nM and the kon came to 950000 ± 680000 M⁻¹ s⁻¹. In data set [1], the IC50 is 70 ± 4 nM. For the same molecule, the half-life in data set [2] (setting [5]) is 2520 ± 120 min.

For `CC(C)[C@@H]1NC(=O)[C@@H](Cc2ccc(O)cc2)NC(=O)CSC[C@H](C(N)=O)NC(=O)[C@H](CC(N)=O)NC(=O)[C@H](C)NC(=O)[C@H](CCCNC(=N)N)NC(=O)[C@@H]2CCCN2C(=O)[C@H]([C@@H](C)O)NC(=O)[C@H](CCCNC(=N)N)NC(=O)[C@H](CCCNC(=N)N)NC(=O)[C@H](CO)NC(=O)[C@H](CCCNC(=N)N)NC(=O)[C@H](CCCNC(=N)N)NC(=O)[C@@H]2CCC[C@@H]2NC(=O)[C@@H]2CCCN2C1=O` [IB4γ^213A, ^AcyVPβ^1RRSRRTPRA Nc-NH2] ({CH2CO}-[dY]VP[X1]RRSRRTPRAN[dC]-NH2; thioether N-15), on Fc-tagged human IFNGR1, the dissociation constant Kd came to 8.2 ± 1.4 nM and the kon was 790000 ± 330000 M⁻¹ s⁻¹. This molecule returned an IC50 in data set [1] of 7.8 ± 1.6 nM. Besides, the half-life in data set [2] (setting [4]) is 27.6 ± 3 min.

Regarding `CC(C)[C@@H]1NC(=O)[C@@H](Cc2ccc(O)cc2)NC(=O)CSC[C@H](C(N)=O)NC(=O)[C@H](CCCN)NC(=O)[C@H](CO)NC(=O)[C@H](CCCN)NC(=O)[C@H](Cc2c[nH]cn2)NC(=O)CNC(=O)[C@H]2C[C@H](C2)NC(=O)[C@H](Cc2c[nH]cn2)NC(=O)[C@H](CC(N)=O)NC(=O)[C@H](CCCNC(=N)N)NC(=O)[C@H](CCCNC(=N)N)NC(=O)[C@@H]2CCC[C@@H]2NC(=O)[C@H](C)NC1=O` [IB1Orn, ^AcyVAβ^1RRNHγ^1GHOSOc-NH2] ({CH2CO}-[dY]VA[X1]RRNH[Acbc(cis-1,3)]GH[Orn]S[Orn][dC]-NH2; thioether N-15), at Fc-tagged human IFNGR1, the Kd was 11 ± 3 nM and the kon amounted to 1.4e+06 ± 900000 M⁻¹ s⁻¹. Also, the IC50 in data set [1] is 17 ± 3 nM. The molecule also gave a half-life in data set [2] (setting [5]) of 1980 ± 60 min.

With `CC(C)[C@@H]1NC(=O)[C@@H](Cc2ccc(O)cc2)NC(=O)CSC[C@H](C(N)=O)NC(=O)[C@H](CC(N)=O)NC(=O)[C@H]2C[C@@H](C2)NC(=O)[C@H](CCCNC(=N)N)NC(=O)[C@@H]2CCCN2C(=O)[C@H]([C@@H](C)O)NC(=O)[C@H](CCCNC(=N)N)NC(=O)[C@H](CCCNC(=N)N)NC(=O)[C@H](CO)NC(=O)[C@H](CCCNC(=N)N)NC(=O)[C@H](CCCNC(=N)N)NC(=O)[C@@H]2CCC[C@@H]2NC(=O)[C@@H]2CCCN2C1=O` [IB4, ^AcyVPβ^1RRSRRTPRγ^2Nc-NH2] ({CH2CO}-[dY]VP[X1]RRSRRTPR[Acbc(trans-1,3)]N[dC]-NH2; thioether N-15), at Fc-tagged human IFNGR1, the Kd turned out to be 22 ± 11 nM and the kon turned out to be 160000 ± 190000 M⁻¹ s⁻¹. In data set [1], this molecule came in with a concentration for half-maximal inhibition (IC50) of 47 ± 15 nM. Also, the “half-life in human serum (t1/2)” value in data set [2] (setting [3]) worked out at 66 ± 0 min. For the same molecule, in data set [2] (setting [4]), the half-life is under 78 min.
